# According to patent publication US20040071768A1, “Compositions and methods for treating cancer” (Inex Pharmaceuticals Corporation, priority 1999, published 2004):
# Tests used:
# DLD-1 colon xenografts = conditions: positive control
# Experimental: Female NCr nude mice were injected intravenously (q7dx3) via the lateral tail vein on days indicated by an asterisk (*). […] Irinotecan (⋄) was prepared in saline and injected iv (q4dx3) at a dose of 90 mg/kg/dose. Drug-to-lipid ratio was 0.3/1 (w/w). Data points represent median tumor volume (n=6).
# (§1) The anti-tumor activity of multiple (q7d3) dose schedules of liposomal vinorelbine was evaluated in several human xenograft tumor models. The goal of this series of studies was to identify the benefits of encapsulation by evaluating a series of doses and determining the therapeutic index in several xenograft models. Models were selected based on the following criteria: (1) activity in the single dose studies, (2) a comprehensive literature review of vinca alkaloid efficacy, (3) a desire to include at least 2-3 models that represent the clinical use of vinorelbine, and (4) a desire to include models with a range of sensitivity to vinorelbine so that improvements resulting from the use of the liposome formulation might be identified. Based on these criteria, MX-1 and MDA-MB-435 breast models, the NCl-H460 NSCLC model and the HT-29 and DLD-1 colon models were chosen.
# (§2) Therapeutic index (TI) is a parameter that quantifies the “safety factor” of a particular therapy. TI is a ratio of a toxicity parameter and a biological activity parameter. Therefore, a higher ratio represents a greater potential margin of safety. For these studies, TI is defined as follows: […]
# (§3) The minimal effective dose (MED) was set according to NCl activity criteria as the dose resulting in an optimal % T/C of 40. This information was derived from Table 7.
# [1] = test system: MDA-MB-435 breast xenografts; conditions: positive control
# Experimental: Female NCr nude mice were injected intravenously (q7dx3, beginning day 15) via the lateral tail vein. […] Paclitaxel (⋄) was prepared in […]/12.5% ethanol/75% saline and injected iv (q1dx5) at a dose of 15 mg/kg/dose. Drug-to-lipid ratio was 0.3/1 (w/w). Data points represent median tumor volume (n=6).
# as §1, §2, §3
# [2] = adults, cited from earlier work
# [3] = test system: NCl H460 non small cell lung xenografts; test: Multiple dose (q7dx3) anti-tumor activity, NCl H460 non small cell lung xenograft; conditions: positive control
# Experimental: Female NCr nude mice were injected intravenously (q7dx3, beginning day 7) via the lateral tail vein. […] Mitomycin C (⋄) was prepared in saline and injected iv (q4dx3) at a dose of 3 mg/kg/dose. Drug-to-lipid ratio was 0.3/1 (w/w). Data points represent median tumor volume (n=6).
# as §1, §2, §3
smiles,measurement,setting,value
CCc1c2c(nc3ccc(OC(=O)N4CCC(N5CCCCC5)CC4)cc13)-c1cc3c(c(=O)n1C2)COC(=O)[C@]3(O)CC [Irinotecan],% T/C (optimal % T/C following final treatment),DLD-1 colon xenografts; 90 mg/kg/dose iv q4dx3,11%
same,"DRD (drug related deaths, n = 6)",DLD-1 colon xenografts; 90 mg/kg/dose iv q4dx3,0
same,NCI Score,DLD-1 colon xenografts; 90 mg/kg/dose iv q4dx3,1
same,T-C (tumor growth delay to 1000 mm^3),DLD-1 colon xenografts; 90 mg/kg/dose iv q4dx3,17.2
same,TF (tumor free animals at the end of study),"DLD-1 colon xenografts; 90 mg/kg/dose iv q4dx3, n=6",0
CC(=O)O[C@H]1C(=O)[C@@]2(C)[C@H]([C@H](OC(=O)c3ccccc3)[C@]3(O)C[C@H](OC(=O)[C@H](O)[C@@H](NC(=O)c4ccccc4)c4ccccc4)C(C)=C1C3(C)C)[C@]1(OC(C)=O)CO[C@@H]1C[C@@H]2O [Paclitaxel],% T/C (optimal % T/C following final treatment),[1]; 15 mg/kg/dose iv q1dx5,−55%
same,NCI Score,[1]; 15 mg/kg/dose iv q1dx5,3
same,T-C (tumor growth delay to 1000 mm^3),[1]; 15 mg/kg/dose iv q1dx5,36.9
same,TF (tumor free animals at the end of study),"[1]; 15 mg/kg/dose iv q1dx5, n=6",0
"CC[C@]1(O)C[C@H]2CN(CCc3c([nH]c4ccccc34)[C@@](C(=O)OC)(c3cc4c(cc3OC)N(C=O)[C@H]3[C@@](O)(C(=O)OC)[C@H](OC(C)=O)[C@]5(CC)C=CCN6CC[C@]43[C@@H]65)C2)C1 [free vincristine, 22-oxovincaleukoblastine]",total dose at which peripheral neuropathic effects usually begin,[2]; 2-3 doses,5 to 6 mg
same,cumulative dose after which peripheral neuropathic effects are generally significant,[2]; 8-10 doses,15 to 20 mg
CO[C@@]12[C@H](COC(N)=O)C3=C(C(=O)C(C)=C(N)C3=O)N1C[C@@H]1N[C@@H]12 [Mitomycin C],% T/C (optimal % T/C following final treatment),[3]; 3 mg/kg/dose iv q4dx3,5%
same,"DRD (drug related deaths, n = 6)",[3]; 3 mg/kg/dose iv q4dx3,0
same,NCI Score,[3]; 3 mg/kg/dose iv q4dx3,1
same,T-C (tumor growth delay to 1000 mm^3),[3]; 3 mg/kg/dose iv q4dx3,22.2
same,TF (tumor free animals at the end of study),"[3]; 3 mg/kg/dose iv q4dx3, n=6",0
